Values after ≈ are worked out from the molar mass of the structure shown.
Key:
Rattus norvegicus = settings: for LD50: acute, mortality
Apis mellifera = settings: acute, mortality
Pimephales promelas = settings: chronic/long-term; duration: 266 days; reproduction
Folsomia candida = settings: chronic/long-term; mortality
Neomysis kadiakensis = settings: chronic/long-term; duration: 28 days; reproduction
Oncorhynchus mykiss = settings: acute, mortality
Chironomus tentans = settings: chronic/long-term; duration: 24 days
Tagia sp. = settings: chronic/long-term; growth
Colinus virginianus = settings: for LD50: acute, oral, mortality
Daphnia magna = settings: chronic/long-term; duration: 21 days; reproduction

Row | Structure (SMILES) | LD50 (Rattus norvegicus) | NOAEL (Rattus norvegicus; chronic, body weight) | LD50 (Apis mellifera; dermal) | LD50 (Apis mellifera; oral, unspecified) | NOEC (Pimephales promelas) | NOEC (Folsomia candida) | NOEC (Neomysis kadiakensis) | LC50 (Oncorhynchus mykiss; duration: 96 hours) | NOEC (Chironomus tentans) | NOEC (Tagia sp.) | LD50 (Colinus virginianus; diet) | LD50 (Colinus virginianus) | NOEL (Colinus virginianus; chronic, reproduction) | NOEC (Daphnia magna) | LC50 (Oncorhynchus mykiss) | LD50 (Rattus norvegicus; oral) | NOAEL (Rattus norvegicus; subchronic, duration: 90 days, oral)
1 | CSC1=N[C@@](C)(c2ccccc2)C(=O)N1Nc1ccccc1 [(S)-1-Anilino-4-methyl-2-methylthio-4-phenylimidazolin-5-one] | > 2030 mg/kg | 3.9 mg/kg-day | 25.7 µg/piece | > 93.3 µg/piece | 0.07 mg/L | 2.26 mg/kg | 0.0095 mg/L | 0.74 µg/mL (≈ 2.38 µM) | 0.05 mg/L | 0.63 mg/kg | > 1070 mg/kg | > 2000 mg/kg | 133 mg/kg-day |  |  |  | 
2 | CSC1=N[C@@](C)(c2ccccc2)C(=O)N1 | 176 mg/kg |  |  |  |  | 250 mg/kg |  |  |  | 100 mg/kg | 723 mg/kg |  |  | 16 mg/L | > 98 µg/mL |  | 
3 | CC1(c2ccccc2)NC(=O)NC1=O (configuration not stated) [5-Methyl-5-phenylhydantoin] |  |  |  |  |  |  |  |  |  |  | > 2500 mg/kg |  |  |  |  | 1520 mg/kg | 6.4 mg/kg-day
